This passage reports TGI and GI50 results from PubChem BioAssay (NCI).

Test systems include ACHN renal; COLO 205 colon; HT29 colon; NCI-H226 lung; NCI-H23 lung; SF-268 CNS; SK-MEL-5 melanoma; SR leukemia; NCI-H522 lung; SNB-75 CNS.
Common to all, as to test: NCI-60 cell line screen, 48 h

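Grown in 96-well plates, cells were treated for 48 hours with each compound at five concentrations. Insufficient inhibition: endpoint recorded as highest concentration tested. At the GI50, growth is halved. TGI marks complete inhibition of growth.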

Regarding `NC(=O)N/N=C(\CCC(=O)N(Cc1ccccc1)Cc1ccccc1)CC(=O)c1ccc(F)cc1`, the TGI in the experiment with ACHN renal, with COLO 205 colon, with HT29 colon, in the experiment with NCI-H226 lung, in the experiment on NCI-H23 lung and in the experiment on SF-268 CNS was greater than 100 µM each time. Moreover, the TGI in the experiment on SK-MEL-5 melanoma and in the experiment with SR leukemia was greater than 100 µM throughout.
For the molecule `CNC(=O)c1cncc(/C=C/c2c(Cl)cccc2Cl)c1`, the GI50 is greater than 23.2 µM in the experiment with ACHN renal; greater than 25 µM in the experiment with COLO 205 colon; 15.1 µM in the experiment with HT29 colon; greater than 24.1 µM with NCI-H226 lung; greater than 25000 nM in the experiment on NCI-H23 lung; 8.38 µM in the experiment with NCI-H522 lung. Further, the GI50 in the experiment with SF-268 CNS is 22.7 µM; with SK-MEL-5 melanoma it was 14.5 µM; in the experiment with SNB-75 CNS it was 2.89 µM. In addition, the TGI with ACHN renal, in the experiment with COLO 205 colon, in the experiment on HT29 colon, in the experiment on NCI-H226 lung, in the experiment on NCI-H23 lung and in the experiment with NCI-H522 lung was greater than 25 µM throughout. The TGI with SF-268 CNS was greater than 25 µM; with SK-MEL-5 melanoma, greater than 25 µM; in the experiment with SNB-75 CNS, greater than 16.1 µM.
Turning to `Nc1ccc(C2=Nc3ccccc3SC(c3ccccc3O)C2)cc1` (configuration not stated), the TGI in the experiment with ACHN renal was greater than 100 µM; in the experiment with COLO 205 colon it was greater than 100 µM; in the experiment with HT29 colon, greater than 100 µM; with NCI-H226 lung, greater than 100 µM; in the experiment on NCI-H23 lung, greater than 100 µM; in the experiment with NCI-H522 lung, 64.9 µM. Further, the TGI was greater than 100 µM in the experiment with SF-268 CNS, greater than 100 µM in the experiment on SK-MEL-5 melanoma and 93.3 µM with SNB-75 CNS.
As to `CC(=O)O/N=C/c1cc2c(cc1Br)OCO2`, the TGI in the experiment with ACHN renal, with COLO 205 colon, with HT29 colon, with NCI-H23 lung, with NCI-H522 lung and in the experiment with SF-268 CNS was greater than 349 µM in each case. The TGI in the experiment with SK-MEL-5 melanoma and in the experiment with SR leukemia was greater than 349 µM each time.
For the molecule `COc1ccc(/C=N\O[Si](C)(C)C(C)(C)C)cc1O[Si](C)(C)C(C)(C)C`, the TGI amounted to 33.3 µM in the experiment on ACHN renal; 52.2 µM in the experiment with COLO 205 colon; 36.2 µM in the experiment with HT29 colon; 37.1 µM in the experiment on NCI-H23 lung; 39.4 µM with SF-268 CNS; 33.9 µM with SK-MEL-5 melanoma. Also, the TGI with SNB-75 CNS was 37.1 µM.
As for `COC1C(O)C(C)OC(O[C@@H]2C[C@H]3CC[C@@H]4[C@H](CC[C@]5(C)[C@@H](C6=CC(=O)OC6)CC[C@]45O)[C@@]3(C)[C@H](O)C2)C1O` (some centres not stated), the TGI worked out at 0.615 µM with ACHN renal; 1.05 µM in the experiment with COLO 205 colon; 0.472 µM in the experiment on HT29 colon; 0.532 µM in the experiment on NCI-H226 lung; 0.0231 µM in the experiment on NCI-H23 lung; 0.132 µM with NCI-H522 lung. The figures for the TGI with SF-268 CNS, in the experiment with SK-MEL-5 melanoma and in the experiment with SNB-75 CNS were 0.171 µM, 0.122 µM and 1.01 µM, respectively.
On to `O=C(CC(=O)C1CCOC1=O)C(=O)Nc1ccc(Cl)cc1` (configuration not stated), for which the TGI in the experiment with ACHN renal, with COLO 205 colon, with HT29 colon, in the experiment on NCI-H226 lung, in the experiment on NCI-H23 lung and in the experiment with NCI-H522 lung was greater than 100 µM throughout. The TGI with SF-268 CNS, with SK-MEL-5 melanoma and in the experiment on SNB-75 CNS was greater than 100 µM throughout.
For the molecule `OC1c2ccccc2C2C(O)c3ccccc3C12` (configuration not stated), the TGI with ACHN renal, with COLO 205 colon, in the experiment on HT29 colon, in the experiment with NCI-H23 lung, with NCI-H522 lung and in the experiment with SF-268 CNS was greater than 100 µM in each case. For the same molecule, the TGI with SK-MEL-5 melanoma and in the experiment on SNB-75 CNS was greater than 100 µM in each case.
For the molecule `C=C(C)C(=O)O[C@H]1CC2=CC(CC(C)=C[C@H]3OC(=O)C(=C)C13)OC2=O` (some centres not stated), the TGI is 27.6 µM in the experiment on ACHN renal; 29.3 µM in the experiment on COLO 205 colon; 43.2 µM in the experiment on HT29 colon; greater than 100 µM with NCI-H226 lung; greater than 100 µM with NCI-H23 lung; 17 µM in the experiment on NCI-H522 lung. For the same molecule, the TGI with SF-268 CNS is 68.5 µM; in the experiment on SK-MEL-5 melanoma, greater than 100 µM; in the experiment with SNB-75 CNS, greater than 100 µM.
Consider `NS(=O)(=O)c1ccc(NC(=O)c2cccc3c(Nc4ccc(S(N)(=O)=O)cc4)c4ccccc4nc23)cc1`, for which the TGI was greater than 100 µM with ACHN renal; greater than 100 µM with COLO 205 colon; 68.4 µM in the experiment on HT29 colon; greater than 100 µM in the experiment with NCI-H23 lung; 49.9 µM in the experiment with NCI-H522 lung; 65.3 µM with SF-268 CNS. Also, the TGI in the experiment on SK-MEL-5 melanoma and in the experiment on SNB-75 CNS was greater than 100 µM throughout.
Take `O=C1c2ccn(CCCCN(CCO)CCO)c2C(=O)c2c1c(O)c1ccccc1c2O`: the GI50 with ACHN renal is 21.6 µM; in the experiment with COLO 205 colon, 4.45 µM; in the experiment with HT29 colon, 3.39 µM; with NCI-H226 lung, 64 µM; in the experiment with NCI-H23 lung, 1660 nM; with NCI-H522 lung it was 9.29 µM. Further, the GI50 in the experiment with SF-268 CNS is 13.7 µM; with SK-MEL-5 melanoma, 13.2 µM; with SNB-75 CNS it was 21.4 µM. Moreover, the TGI is 57.7 µM with ACHN renal; greater than 100 µM in the experiment on COLO 205 colon; greater than 100 µM in the experiment with HT29 colon; greater than 100 µM with NCI-H226 lung; 3.02 µM with NCI-H23 lung; greater than 92.7 µM in the experiment with NCI-H522 lung. For the same molecule, the TGI in the experiment on SF-268 CNS is greater than 63.2 µM; in the experiment on SK-MEL-5 melanoma, 78.9 µM; in the experiment with SNB-75 CNS, 65.5 µM.
As to `Clc1ccc(/C=C/c2nc(Cl)c(-c3ccc(Cl)cc3)c(Cl)n2)cc1`, the TGI in the experiment with ACHN renal, in the experiment with COLO 205 colon, in the experiment with HT29 colon, in the experiment on NCI-H226 lung, in the experiment on NCI-H23 lung and in the experiment with NCI-H522 lung was greater than 100 µM each time. The values for the TGI in the experiment with SF-268 CNS, in the experiment with SK-MEL-5 melanoma and with SNB-75 CNS were greater than 100 µM, greater than 100 µM and 64.5 µM, respectively.
In the case of `Cc1cc(C)nc(NS(=O)(=O)c2ccc(NC(=O)c3cccc4c(N)c5ccccc5nc34)cc2)n1`, the TGI in the experiment with ACHN renal, in the experiment on COLO 205 colon, with NCI-H226 lung, in the experiment on NCI-H23 lung, in the experiment with NCI-H522 lung and in the experiment on SF-268 CNS was greater than 100 µM throughout. In addition, the TGI in the experiment on SK-MEL-5 melanoma and in the experiment with SNB-75 CNS was greater than 100 µM throughout.
As for `CN(C)CC1=Nc2cccc3cccc(c23)N1`, the TGI amounted to 28.2 µM with ACHN renal; 7.11 µM with COLO 205 colon; 53.7 µM with HT29 colon; 37.4 µM in the experiment on NCI-H226 lung; 49.9 µM in the experiment with NCI-H23 lung; 33.4 µM in the experiment with SF-268 CNS. Further, the TGI with SK-MEL-5 melanoma came to 28.7 µM; in the experiment on SNB-75 CNS, 30.4 µM; in the experiment on SR leukemia, 84.3 µM.
